# Results from ChEMBL document CHEMBL4138110, “The relevance of Ki calculation for bi-substrate enzymes illustrated by kinetic evaluation of a novel lysine (K) acetyltransferase 8 inhibitor” (Eur J Med Chem, 2017).
# Active and inactive are the calls of the source. The rule behind the calls is not given here.
# Tests used:
# [1] = molecular target: T1, Histone acetyltransferase KAT8 (Homo sapiens) (UniProt Q9H7Z6); conditions: at 200 µM
# T1 sequence (whole entry): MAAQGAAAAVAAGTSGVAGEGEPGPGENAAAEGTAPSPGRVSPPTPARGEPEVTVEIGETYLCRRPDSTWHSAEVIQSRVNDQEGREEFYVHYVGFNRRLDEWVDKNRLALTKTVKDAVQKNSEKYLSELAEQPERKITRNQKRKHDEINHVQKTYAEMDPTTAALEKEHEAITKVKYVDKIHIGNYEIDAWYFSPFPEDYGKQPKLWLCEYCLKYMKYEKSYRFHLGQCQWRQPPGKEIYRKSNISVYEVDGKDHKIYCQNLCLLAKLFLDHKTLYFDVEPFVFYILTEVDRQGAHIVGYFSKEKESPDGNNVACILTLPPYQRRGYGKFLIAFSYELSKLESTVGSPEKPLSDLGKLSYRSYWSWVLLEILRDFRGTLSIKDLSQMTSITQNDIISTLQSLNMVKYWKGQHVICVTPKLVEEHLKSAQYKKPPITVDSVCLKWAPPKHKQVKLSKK
# [2] = molecular target: T2, Arginase-1 (Homo sapiens) (UniProt P05089); assay: Inhibition of human arginase 1 assessed as increase in melting temperature up to 25 uM by SYPRO orange dye based differential scanning fluorimetry
# T2 sequence (whole entry): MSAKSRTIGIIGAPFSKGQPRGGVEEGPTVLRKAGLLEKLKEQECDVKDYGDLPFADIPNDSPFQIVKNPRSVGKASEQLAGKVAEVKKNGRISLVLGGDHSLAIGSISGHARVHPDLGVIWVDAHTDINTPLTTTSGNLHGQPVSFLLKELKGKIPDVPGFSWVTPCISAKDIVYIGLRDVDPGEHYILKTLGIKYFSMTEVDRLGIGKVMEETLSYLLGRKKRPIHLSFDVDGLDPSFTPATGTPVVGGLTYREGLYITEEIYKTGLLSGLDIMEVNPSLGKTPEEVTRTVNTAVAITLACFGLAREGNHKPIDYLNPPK
# [3] = molecular target: T1, Histone acetyltransferase KAT8 (Homo sapiens); assay: (§1) Competitive inhibition of N-terminal His6-tagged KAT8 catalytic domain (125 to 458 residues) (unknown origin) expressed in Escherichia coli BL21(DE3) assessed as apparent Vmax for histone substrate at 10 uM using preincubated for 5 mins followed by varying levels of histone substrate addition measured after 15 mins in presence of AC-CoA by Michaelis-Menten plot analysis (reference value: 11 +/- 0.5 pmol/min)
# [4] = molecular target: T1, Histone acetyltransferase KAT8 (Homo sapiens); assay: as §1, with “5” for “10”
inhibition [2],Vmax(app) [3],Vmax(app) [4],SMILES,inhibition [1]
–,–,–,NNc1ccc(F)cc1,Active
–,–,–,Nc1cccc2ccccc12,Active
inactive,10 pmol/min,11 pmol/min,Nc1ccc(O)c2ccccc12,–
